# Source: patent US4160828A, “Analgesic phosphinyl compounds and compositions” (Hoechst Aktiengesellschaft, priority 1978, dated 1979)
# Tests used:
# [1] = test system: mouse; experiment: Writhing Test in the mouse (Siegmund et al), analgesic activity; format: in vivo; conditions: versus Comparison Compound of the same test series
# Experimental: (§1) The physiological activity of the compounds prepared in the Examples has been tested using various test methods and compared with the activities of various structurally similar commercial products. In each case, testing was carried out with equimolar quantities of the test compounds. The analgesic activity was determined by the Writhing Test in the mouse using the method of E. Siegmund et al (Proceed. Soc. --Exp. Biol. Med. 95(1957) Page 729) and by the Randall-Selitto Test in the rat using the method of Randall and Selitto (Arch. Int. Pharmacodyn. 111(1957) Page 409).
# [2] = test system: carrageenin oedema on rat paws; experiment: Carrageenin oedema test on rat paws (Winter et al), anti-inflammatory effect; format: in vivo; conditions: rat paw; versus Comparison Compound of the same test series
# Experimental: (§2) The physiological activity of the compounds prepared in the Examples has been tested using various test methods and compared with the activities of various structurally similar commercial products. In each case, testing was carried out with equimolar quantities of the test compounds. The anti-inflammatory effect was measured by the carrageenin oedema test on rat paws using the method of Winter et al (Proceed. Soc. Exp. Biol. Med. 111(1962) Page 544) and in test series III) and also by the adjuvant arthritis test in the rat according to Pearson et al (Arthrit. Rheumat. 2(1959) page 440).
# [3] = test system: mice; experiment: Toxicity by oral administration to mice; format: in vivo, mouse; conditions: versus Comparison Compound of the same test series
# Experimental: (§3) The physiological activity of the compounds prepared in the Examples has been tested using various test methods and compared with the activities of various structurally similar commercial products. In each case, testing was carried out with equimolar quantities of the test compounds.
# The toxicity was measured by oral administration to 50 mice.
# [4] = prior-art compound; cited from earlier work
# [5] = prior-art compound; cited from earlier work; remark: listed apart in the source
# [6] = test system: rat; experiment: Adjuvant arthritis test in the rat (Pearson et al), anti-inflammatory effect; format: in vivo; conditions: sub-chronic; for Adjuvant arthritis: test series III, equimolar quantities; for adjuvant arthritis test compared with comparison compound: versus Comparison Compound C
# Experimental: as §2
# [7] = Analgesic activity / overall physiological activity, in words; format: in vivo; conditions: test not specified; versus Comparison Compound C
# Experimental: as §3
# The analgesic activity was determined by the Writhing Test in the mouse using the method of E. Siegmund et al (Proceed. Soc. --Exp. Biol. Med. 95(1957) Page 729) and by the Randall-Selitto Test in the rat using the method of Randall and Selitto (Arch. Int. Pharmacodyn. 111(1957) Page 409).
# The anti-inflammatory effect was measured by the carrageenin oedema test on rat paws using the method of Winter et al (Proceed. Soc. Exp. Biol. Med. 111(1962) Page 544) and in test series III) and also by the adjuvant arthritis test in the rat according to Pearson et al (Arthrit. Rheumat. 2(1959) page 440).
# [8] = test system: rat; experiment: Randall-Selitto Test in the rat, analgesic activity; format: in vivo; conditions: versus Comparison Compound of the same test series
# Experimental: as §1
smiles,measurement,setting,value
"Cc1cccc(Nc2ccccc2C(=O)OCCCP(C)(C)=O)c1C [Compound 1d, Dimethylphosphinyl-propyl N-(2,3-dimethylphenyl)-anthranilate]",Writhing test compared with comparison compound,[1],substantial improvement over the Comparison Compound
same,Carrageenin oedema test / anti-inflammatory activity compared with comparison compound,[2],more or less equivalent to these of the commercial compound
same,toxicity compared with comparison compound,[3],more favourable toxicity than Compound B
"CP(C)(=O)COC(=O)c1ccccc1Nc1ccnc2c(C(F)(F)F)cccc12 [Compound 2a, dimethylphosphinylmethyl N-(8-trifluoromethyl-4-quinolyl)-anthranilate]",Writhing test compared with comparison compound,[1],substantially better than the Comparison compound
same,toxicity compared with comparison compound,[3],lower than that of Compound A
"O=C(OCC(O)CO)c1ccccc1Nc1ccnc2cc(Cl)ccc12 (stereo not drawn) [2,3-dihydroxypropyl N-(7-chloro-4-quinolyl)-anthranilate]","solubility in water, prior art",[4],insoluble in water
same,"analgesic activity, prior art",[5],known to have analgesic activity
"CP(C)(=O)CCCOC(=O)c1ccccc1Nc1cccc(C(F)(F)F)c1 [Compound 1e, Dimethylphosphinyl-propyl N-(3-trifluoromethylphenyl)-anthranilate]",Adjuvant arthritis,[6],10-25
same,adjuvant arthritis test compared with comparison compound,[6],considerably better than that of Comparision Compound C
same,toxicity compared with comparison compound,[3],substantially more favourable than that of Compound C
"O=C(O)c1ccccc1Nc1cccc(C(F)(F)F)c1 [Compound C, Flufenamic acid, reference compound]",Adjuvant arthritis,[6],25-50
"CP(C)(=O)COC(=O)c1cccnc1Nc1cccc(C(F)(F)F)c1 [Compound 2d, 3-(dimethylphosphinyl)-methyl 2-(3-trifluoromethylanilino)-nicotinate]",Carrageenin oedema test / anti-inflammatory activity compared with comparison compound,[2],practically almost equal to that of the Comparison Compound
same,toxicity compared with comparison compound,[3],more than twice that of Comparision Compouhd D
"CP(C)(=O)COC(=O)c1ccccc1Nc1cccc(C(F)(F)F)c1 [Compound 1a, dimethylphosphinylmethyl N-(3-trifluoromethyl-phenyl)-anthranilate]",Adjuvant arthritis,[6],5-10
same,adjuvant arthritis test compared with comparison compound,[6],considerably better than that of Comparision Compound C
same,analgesic activities compared with comparison compound,[7],clearly improved over that of Comparison Compound C
same,toxicity compared with comparison compound,[3],substantially more favourable than that of Compound C
"CP(C)(=O)CCCOC(=O)c1ccccc1Nc1c(C(F)(F)F)cnc2ccccc12 [Compound 1f, 3-(Dimethylphosphinyl)-propyl N-(3-trifluoromethyl-4-quinolyl)-anthranilate]",analgesic activities compared with comparison compound,[7],clearly improved over that of Comparison Compound C
"Cc1cccc(Nc2ccccc2C(=O)OCP(C)(C)=O)c1C [Compound 1c, Dimethylphosphinyl-methyl N-(2,3-dimethylphenyl)-anthranilate]",Carrageenin oedema test / anti-inflammatory activity compared with comparison compound,[2],more or less equivalent to these of the commercial compound
same,toxicity compared with comparison compound,[3],more favourable toxicity than Compound B
same,Randall-Selitto test compared with comparison compound,[8],substantial improvement over the Comparison Compound
"CP(C)(=O)COC(=O)c1ccccc1Nc1ccnc2cc(Cl)ccc12 [Compound 2c, 3-(dimethylphosphinyl)-methyl N-(7-chloro-4-quinolyl)-anthranilate]",Writhing test compared with comparison compound,[1],substantially better than the Comparison compound
same,Carrageenin oedema test / anti-inflammatory activity compared with comparison compound,[2],show an improvement compared with Compound A
"CP(C)(=O)CCCOC(=O)c1ccccc1Nc1ccnc2cc(Cl)ccc12 [Compound 4, 3-(dimethylphosphinyl)-propyl N-(7-chloro-4-quinolyl)-anthranilate]",Carrageenin oedema test / anti-inflammatory activity compared with comparison compound,[2],show an improvement compared with Compound A
